The source of these data is article PMC9395504 (Investigational New Drugs, 2022).

Read-outs that look alike come from different tables or passages of the source. Marks after values point to notes of the source that are not given here.

Series [1] can be described thus: Plasma pharmacokinetics of trametinib and dabrafenib at steady state (LC-MS/MS, noncompartmental). The class given is in vivo, human. The settings on record: for Cmax / AUC(0-t) / Tmax: human, plasma, oral. Here is the method:
We, therefore, collected samples on these days to perform dabrafenib and trametinib PK analysis.
We determined plasma concentrations of trametinib, dabrafenib, and hydroxy- and desmethyl-dabrafenib metabolites with a validated assay using liquid-liquid extraction of samples spiked with the stable isotope internal standards for each analyte followed by analysis using LC-MS/MS detection. The validated concentration ranges for quantitation were 0.250 to 250 ng/mL for trametinib and 1.00 to 1,000 ng/mL for dabrafenib and its metabolites. We calculated concentrations using a linear regression calibration model with a 1/x^2 weighting factor.
The following PK parameters were estimated: maximum observed plasma concentration (Cmax), time to reach Cmax (tmax), area-under-the-plasma concentration-time curve (AUC), terminal phase half-life (t1/2,z), and apparent total body clearance (CL/F). We performed noncompartmental analyses for PK parameter estimation using Phoenix® WinNonlin® version 6.4 or later software (Certara™, Princeton, NJ). […] We prepared descriptive statistics, tables, and graphs using Phoenix® WinNonlin® and Prism version 9.1.1 (GraphPad Software, San Diego, CA).

Series [2] is described as follows: Safety: adverse events by NCI-CTCAE v4.0, phase 1 study Part 1. It is filed as in vivo, human. The procedure: We defined the dose-limiting toxicity (DLT) period as the first 28 days of each dose-escalation cohort’s treatment cycle (DLT window). […] Non-hematologic DLTs included grade ≥3 nausea, vomiting, or diarrhea enduring >48 hours despite standard medical management, grade 3 fatigue persisting >7 days or grade 4 fatigue, any grade ≥3 metabolic laboratory abnormalities that are not controlled within 48 hours by standard medical management.

[3] abbreviates: trametinib 2 mg QD, Cycle 2 Day 7 with AMG 232, Arm 2 cohort 1 (AMG 232 120 mg), geometric mean (CV%).
[4] abbreviates: trametinib 2 mg QD, Cycle 2 Day 7 with AMG 232, Arm 2 cohort 3 (AMG 232 240 mg), geometric mean (CV%).

On to `CC(C)(C)c1nc(-c2cccc(NS(=O)(=O)c3c(F)cccc3F)c2F)c(-c2ccnc(N)n2)s1` [dabrafenib], for which the “Effect of AMG 232 on dabrafenib exposures” value in series [1] (dabrafenib and trametinib with and without AMG 232) is “not significantly altered”. Moreover, the peak concentration (Cmax) was found to be 1740 ng/mL in series [1] (150 mg BID, dabrafenib 150 mg BID, Cycle 1 Day 21, T + D without AMG 232, Arm 1 cohort 1 (AMG 232 120 mg), geometric mean (CV%)); 3310 ng/mL in series [1] (150 mg BID, dabrafenib 150 mg BID, Cycle 1 Day 21, T + D without AMG 232, Arm 1 cohort 2 (AMG 232 180 mg), geometric mean (CV%)); 1200 ng/mL in series [1] (dabrafenib 150 mg BID, Cycle 2 Day 7, T + D with AMG 232, Arm 1 cohort 1 (AMG 232 120 mg), geometric mean (CV%)); 1750 ng/mL in series [1] (dabrafenib 150 mg BID, Cycle 2 Day 7, T + D with AMG 232, Arm 1 cohort 2 (AMG 232 180 mg), geometric mean (CV%)). Moreover, the AUC(0-t) came to 4840 ng·h/mL in series [1] (150 mg BID, dabrafenib 150 mg BID, Cycle 1 Day 21, T + D without AMG 232, Arm 1 cohort 1 (AMG 232 120 mg), geometric mean (CV%), read-out: AUC6hr); 7450 ng·h/mL in series [1] (150 mg BID, dabrafenib 150 mg BID, Cycle 1 Day 21, T + D without AMG 232, Arm 1 cohort 2 (AMG 232 180 mg), geometric mean (CV%), read-out: AUC6hr); 3640 ng·h/mL in series [1] (dabrafenib 150 mg BID, Cycle 2 Day 7, T + D with AMG 232, Arm 1 cohort 1 (AMG 232 120 mg), geometric mean (CV%), read-out: AUC6hr); 4910 ng·h/mL in series [1] (dabrafenib 150 mg BID, Cycle 2 Day 7, T + D with AMG 232, Arm 1 cohort 2 (AMG 232 180 mg), geometric mean (CV%), read-out: AUC6hr). The Tmax worked out at 1 h in series [1] (150 mg BID, dabrafenib 150 mg BID, Cycle 1 Day 21, T + D without AMG 232, Arm 1 cohort 2 (AMG 232 180 mg), median (min-max), read-out: tmax); 1 h in series [1] (dabrafenib 150 mg BID, Cycle 1 Day 21, T + D without AMG 232, Arm 1 cohort 1 (AMG 232 120 mg), median (min-max), read-out: tmax); 1 h in series [1] (dabrafenib, cycle 1, day 21, without AMG 232 co-administration, read-out: median tmax). The “Patients discontinuing dabrafenib due to AEs” value in series [2] (10 patients in Arm 1, n=2) was found to be 20%.

Consider `CC(=O)Nc1cccc(-n2c(=O)n(C3CC3)c(=O)c3c(Nc4ccc(I)cc4F)n(C)c(=O)c(C)c32)c1` [trametinib], for which, in series [1] (cycle 2 day 7 vs cycle 1 day 21), the “Effect of AMG 232 co-administration on trametinib PK” value was “does not appear to affect”. Further, the Cmax in series [1] (2 mg, trametinib 2 mg QD, Cycle 1 Day 21 without AMG 232, Arm 2 cohort 1 (AMG 232 120 mg), geometric mean (CV%)) was determined as 21.5 ng/mL; in series [1] (2 mg, trametinib 2 mg QD, Cycle 1 Day 21 without AMG 232, Arm 2 cohort 2 (AMG 232 180 mg), geometric mean (CV%)), 25.3 ng/mL; in series [1] (2 mg, trametinib 2 mg QD, Cycle 1 Day 21 without AMG 232, Arm 2 cohort 3 (AMG 232 240 mg), geometric mean (CV%)), 22.1 ng/mL; in series [1] (trametinib 2 mg QD, Cycle 1 Day 21 without AMG 232, Arm 1 cohort 1 (AMG 232 120 mg), geometric mean (CV%)) it was 20.1 ng/mL; in series [1] (trametinib 2 mg QD, Cycle 1 Day 21 without AMG 232, Arm 1 cohort 2 (AMG 232 180 mg), geometric mean (CV%)), 24.1 ng/mL; in series [1] (trametinib 2 mg QD, Cycle 2 Day 7 with AMG 232, Arm 1 cohort 1 (AMG 232 120 mg), geometric mean (CV%)), 22.4 ng/mL. For the same compound, the Cmax in series [1] (trametinib 2 mg QD, Cycle 2 Day 7 with AMG 232, Arm 1 cohort 2 (AMG 232 180 mg), geometric mean (CV%)) was found to be 25.9 ng/mL; in series [1] (setting [3]), 24.8 ng/mL; in series [1] (trametinib 2 mg QD, Cycle 2 Day 7 with AMG 232, Arm 2 cohort 2 (AMG 232 180 mg), n = 1) it was 21.8 ng/mL; in series [1] (setting [4]), 24.3 ng/mL. In addition, the AUC(0-t) in series [1] (2 mg, trametinib 2 mg QD, Cycle 1 Day 21 without AMG 232, Arm 2 cohort 1 (AMG 232 120 mg), geometric mean (CV%), read-out: AUC24hr) was determined as 370 ng·h/mL; in series [1] (trametinib 2 mg QD, Cycle 1 Day 21 without AMG 232, Arm 1 cohort 1 (AMG 232 120 mg), geometric mean (CV%), read-out: AUC24hr) it was 326 ng·h/mL; in series [1] (trametinib 2 mg QD, Cycle 1 Day 21 without AMG 232, Arm 1 cohort 2 (AMG 232 180 mg), geometric mean (CV%), read-out: AUC24hr), 362 ng·h/mL; in series [1] (trametinib 2 mg QD, Cycle 2 Day 7 with AMG 232, Arm 1 cohort 1 (AMG 232 120 mg), geometric mean (CV%), read-out: AUC24hr), 338 ng·h/mL; in series [1] (trametinib 2 mg QD, Cycle 2 Day 7 with AMG 232, Arm 1 cohort 2 (AMG 232 180 mg), geometric mean (CV%), read-out: AUC24hr) it was 402 ng·h/mL; in series [1] (trametinib 2 mg QD, Cycle 2 Day 7 with AMG 232, Arm 2 cohort 2 (AMG 232 180 mg), n = 1, read-out: AUC24hr), 463 ng·h/mL. The Tmax in series [1] (2 mg, trametinib 2 mg QD, Cycle 1 Day 21 without AMG 232, Arm 2 cohort 2 (AMG 232 180 mg), median (min-max), read-out: tmax) was determined as 4 h; in series [1] (2 mg, trametinib 2 mg QD, Cycle 1 Day 21 without AMG 232, Arm 2 cohort 3 (AMG 232 240 mg), median (min-max), read-out: tmax) it was 2 h; in series [1] (trametinib 2 mg QD, Cycle 1 Day 21 without AMG 232, Arm 1 cohort 1 (AMG 232 120 mg), median (min-max), read-out: tmax), 2 h; in series [1] (trametinib 2 mg QD, Cycle 1 Day 21 without AMG 232, Arm 1 cohort 2 (AMG 232 180 mg), median (min-max), read-out: tmax) it was 2 h; in series [1] (trametinib 2 mg QD, Cycle 2 Day 7 with AMG 232, Arm 1 cohort 1 (AMG 232 120 mg), median (min-max), read-out: tmax), 2 h; in series [1] (trametinib 2 mg QD, Cycle 2 Day 7 with AMG 232, Arm 1 cohort 2 (AMG 232 180 mg), median (min-max), read-out: tmax), 2 h. The Tmax in series [1] (trametinib 2 mg QD, Cycle 2 Day 7 with AMG 232, Arm 2 cohort 1 (AMG 232 120 mg), median (min-max), read-out: tmax) was 2 h; in series [1] (trametinib 2 mg QD, Cycle 2 Day 7 with AMG 232, Arm 2 cohort 2 (AMG 232 180 mg), n = 1, read-out: tmax), 2 h; in series [1] (trametinib 2 mg QD, Cycle 2 Day 7 with AMG 232, Arm 2 cohort 3 (AMG 232 240 mg), median (min-max), read-out: tmax) it was 2 h; in series [1] (trametinib, cycle 2, day 7, with AMG 232 co-administration, across dose cohorts, read-out: median tmax) it was 1 to 3 h. Also, the AUC24hr in series [1] (trametinib 2 mg QD, Cycle 1 Day 21 without AMG 232, Arm 2 cohort 2 (AMG 232 180 mg), geometric mean (CV%)) is 471 (26.7%) n = 5 hr•ng/mL; in series [1] (trametinib 2 mg QD, Cycle 1 Day 21 without AMG 232, Arm 2 cohort 3 (AMG 232 240 mg), geometric mean (CV%)), 385 (22.9%) n = 6 hr•ng/mL; in series [1] (setting [3]), 468 (23.5%)^a n = 3 hr•ng/mL; in series [1] (setting [4]) it was 351 (41.9%)^a n = 4 hr•ng/mL. Also, in series [1] (trametinib, cycle 1, day 21, without AMG 232 co-administration, across dose cohorts), the median tmax is 2 h. The “Patients discontinuing trametinib due to AEs” value in series [2] (all 31 patients, n=6) is 19%.

What is called Cmax is the peak of the concentration-time curve. Usually Tmax stands for the time from dosing to the highest level.
